Experimental findings from ChEMBL document CHEMBL1124348, “Synthesis and biological evaluation of substituted benzo[h]cinnolinones and 3H-benzo[6,7]cyclohepta[1,2-c]pyridazinones: higher homologues of the antihypertensive and antithrombotic 5H-indeno[1,2-c]pyridazinones” (J Med Chem, 1989) are described below.

Activity calls are given as the source filed them. No cut-off for these calls is given here.

A short description of data set [1]: (§1) Lethal dose in mouse by administering compound intraperitoneally. The class given is toxicity, organism-based. As to conditions: in vivo, ip.
Data set [2] deals with Mus musculus. The data set can be described thus: Antithrombotic activity in mouse when administered a dose of 20 mg/kg perorally. To be noted: route oral. The class given is functional.
Data set [3] is described as follows: Lethal dose in mouse was determined by administering perorally. The format is toxicity, organism-based. As to conditions: in vivo, po.
Data set [4] is filed under the species Rattus norvegicus. The data set can be described thus: Antihypertensive action versus dihydralazine. The format is functional.
Data set [5] deals with Rattus norvegicus. The data set can be described thus: Antihypertensive activity in hypertensive rats, after peroral administration that lowered the blood pressure by 50 mmHg; value ranges from 3.50 to 4.80. To be noted: po. The class given is functional.
Data set [6] has as its system Rattus norvegicus. The data set can be described thus: Variation in heart rate when 25 mg/kg administered orally in rats. The class given is functional. As to conditions: route oral.
The species entered for data set [7] is Cavia porcellus. The data set can be described thus: Inotropic activity against guinea pig spontaneously beating atria. The class given is functional.
Data set [8] is filed under the species Cavia porcellus. The data set can be described thus: In vitro irreversible inhibitory activity of adenosine diphosphate (0.5 uM)-induced platelet aggregation in guinea pig platelet rich plasma. The format is functional.
The species named for data set [9] is Cavia porcellus. The data set can be described thus: In vitro inhibitory activity of thrombin (0.625 IU/mL)-induced platelet aggregation in guinea pig platelet rich plasma after 4 min. The format is functional.
The species entered for data set [10] is Cavia porcellus. The data set can be described thus: In vitro reversible inhibitory activity of adenosine diphosphate (0.5 uM)-induced platelet aggregation in guinea pig platelet rich plasma. The class given is functional.
The species named for data set [11] is Cavia porcellus. The data set can be described thus: In vitro inhibitory activity of collagen (0.8 ug/mL)-induced platelet aggregation in guinea pig platelet rich plasma at a dose of 0.8 ug/mL. The class given is functional.
Data set [12] is filed under the species Cavia porcellus. The data set can be described thus: In vitro inhibitory activity of thrombin (0.625 IU/mL)-induced platelet aggregation in guinea pig platelet rich plasma after 2 min. The class given is functional.
Data set [13] has as its system Rattus norvegicus. The data set can be described thus: Antihypertensive activity in hypertensive rats, after peroral administration that lowered the blood pressure by 50 mmHg; value ranges from 2.50 to 6.50. The class given is functional. To be noted: po.
The species named for data set [14] is Cavia porcellus. The data set can be described thus: Inhibitory activity of thrombin (0.625 IU/mL)-induced platelet aggregation in guinea pig platelet rich plasma after 2 min. The class given is functional.
The nature of data set [15]: divya_inp96 Lethal dose in mouse by administering compound intraperitoneally. The format is toxicity, organism-based. To be noted: in vivo, ip.
In data set [16] the test system is Rattus norvegicus. The data set can be described thus: Antihypertensive activity in hypertensive rats, after peroral administration that lowered the blood pressure by 50 mmHg. The format is functional. As to conditions: po.
Data set [17] has as its system Mus musculus. The data set can be described thus: Antithrombotic activity in mouse when administered a dose of 20 mg/kg perorally; NA means inactive. The format is functional, organism-based. Further details: dose 20 mg/kg.
The species named for data set [18] is Cavia porcellus. The data set can be described thus: In vitro reversible inhibitory activity of adenosine diphosphate (0.5 uM)-induced platelet aggregation in guinea pig platelet rich plasma; NA means inactive. The class given is functional.
Data set [19] is filed under the species Cavia porcellus. The data set can be described thus: In vitro irreversible inhibitory activity of adenosine diphosphate (0.5 uM)-induced platelet aggregation in guinea pig platelet rich plasma; NA means inactive. The class given is functional.
Data set [20] concerns Mus musculus. The data set is described as §1. The class given is toxicity, organism-based. As to conditions: in vivo, ip.
The test system of data set [21] is Rattus norvegicus. The data set can be described thus: Antihypertensive activity in hypertensive rats, after peroral administration that lowered the blood pressure by 50 mmHg; value ranges from 0.52 to 4.88. The format is functional. To be noted: po.
Data set [22] has as its system Rattus norvegicus. The data set can be described thus: Antihypertensive activity in hypertensive rats, after peroral administration that lowered the blood pressure by 50 mmHg; value ranges from 6.52 to 14.62. The format is functional. To be noted: po.
In data set [23] the test system is Rattus norvegicus. The data set can be described thus: Antihypertensive activity in hypertensive rats, after peroral administration that lowered the blood pressure by 50 mmHg; Valure ranges from 1.67 to 5.40. The format is functional. As to conditions: po.
For data set [24], the system named is Rattus norvegicus. The data set can be described thus: divya_inp96 Antihypertensive activity in hypertensive rats, after peroral administration that lowered the blood pressure by 50 mmHg. The class given is functional. As to conditions: po.

With `Nc1ccc2c(c1)CCCC1CC(=O)NN=C21` (stereo not given), the LD50 in data set [1] came to 483 mg/kg; in data set [3], 700 mg/kg. Further, the Protection in [2] was 45%.

Regarding `CC(=O)Nc1ccc2c(c1)CC1CC(=O)NN=C21` (stereo not given), the Relative activity in [4] is given as 0.58. The 50% effect level in data set [5] (ED50) was put at a dose of 7.1 mg/kg. In [6], the Peak effect is reported as 53. Moreover, the pD2 in [7] was found to be 5.95.

Take `Cn1c(=O)c2[nH]cnc2n(C)c1=O.Cn1c(=O)c2[nH]cnc2n(C)c1=O.NCCN` [AMINOPHYLLINE]: the pD2 in data set [7] was 5.91.

Consider `CC(=O)Nc1ccc2c(c1)CCC1CC(=O)NN=C21` (stereo in doubt; (-)-3c), for which the Inhibition in [8] is given as 76%; in data set [9], 63%; in [10] it was 37%; in data set [11] it was 10%; in [12], 62%. Also, the Protection in data set [2] (20 mg/kg) is reported as 84%.

For the compound `CC(=O)Nc1ccc2c(c1)CCCC1CC(=O)NN=C21` (stereo not given), the LD50 in data set [1] and in data set [3] was more than 1000 mg/kg throughout. In [2], this compound yielded a Protection of 46%.

`Nc1ccc2c(c1)CCC1CC(=O)NN=C21` (stereo not given): the Inhibition in [8] is 42%; in data set [9], 27%; in data set [10], 10%; in data set [11], 21%; in data set [12], 13%. Further, the figures for the LD50 in [1] and in data set [3] were 611 mg/kg and more than 1000 mg/kg, respectively. Further, it took a dose of 3.5 mg/kg to reach the 50% effect level in data set [13] (ED50). In addition, the Relative activity in [4] amounted to 1.17. The compound further had a Protection in data set [2] of 73%. In [6], the Peak effect was determined as 90. This compound returned a pD2 in [7] of 4.93.

As to `CC(Cl)C(=O)Nc1ccc2c(c1)CCC1CC(=O)NN=C21` (stereo not given), the LD50 in [1] and in data set [3] was more than 1000 mg/kg each time. Moreover, the Protection in [2] is given as 33%.

`CC(=O)Oc1ccccc1C(=O)O` [ASPIRIN]: the Inhibition in [8] came out at 100%; in [14], 0%; in data set [9], 0%; in [10], 0%; in [11], 75%. Also, the Protection in data set [2] amounted to 44%. Moreover, the 50% lethal dose (LD50) in [3] is more than 1000 mg/kg; in [15], 6500 mg/kg.

Regarding `Oc1cc2c(nn1)-c1ccccc1CC2`, the LD50 was 707 mg/kg in [1] and more than 1000 mg/kg in data set [3]. The Protection in [2] was 33%. Besides, the median effective dose (ED50) in data set [16] is more than 25 mg/kg. Moreover, in data set [6], the Peak effect is recorded as -35. The compound also displayed a pD2 in data set [7] of 4.74.

Turning to `N#Cc1ccc2c(c1)CCC1CC(=O)NN=C21` (stereo not given), in data set [17], the Protection result is “inactive”. Also, the LD50 in data set [1] is 560 mg/kg; in data set [3] it was more than 1000 mg/kg.

Consider `CC(=O)Nc1cccc2c1CCC1CC(=O)NN=C21` (stereo not given), for which the Protection result in data set [17] is “inactive”. Also, the LD50 in data set [1] was 378 mg/kg; in data set [3], more than 1000 mg/kg. Further, the inhibition entry in [18] and in data set [19] was “inactive” throughout.

`CC(=O)Nc1ccc2c(c1)CCC1CC(=O)NN=C21` (single isomer, unassigned; (+)): the Inhibition turned out to be 77% in data set [8]; 100% in data set [9]; 36% in data set [10]; 2% in [11]; 91% in data set [12]. In addition, the 50% lethal dose (LD50) in [20] was more than 1000 mg/kg. This compound also registered a Relative activity in [4] of 1.95. Moreover, the Protection in data set [2] (20 mg/kg) was 89%. Besides, the 50% effective dose (ED50) in data set [21] was determined as 2.1 mg/kg. In addition, the Peak effect in [6] (25 mg/kg) was 55. This compound also gave a pD2 in [7] of 5.65.

In [4], `Nc1ccc2c(c1)CC1CC(=O)NN=C21` (stereo not given) displayed a Relative activity of 0.37. The same compound displayed a Peak effect in data set [6] of 49. The compound further returned a pD2 in data set [7] of 5.05. In data set [22], this compound registered an ED50 of 11 mg/kg.

As to `O=C1CC2CCc3ccccc3C2=NN1` (stereo not given), the Inhibition is on record as 95% in data set [8]; 97% in [9]; 30% in data set [10]; 100% in data set [11]; 84% in [12]. The LD50 was found to be 450 mg/kg in [1] and 666 mg/kg in [3]. The same compound registered a Protection in data set [2] of 59%. In data set [16], the 50% effective dose (ED50) worked out at 23.5 mg/kg. For the same compound, the Peak effect in data set [6] was 70. The compound further returned a pD2 in data set [7] of 4.98.

As for `CC(=O)Nc1ccc2c(c1)CCc1cc(O)nnc1-2`, the Inhibition in data set [8] stood at 95%; in data set [9] it was 86%; in [10], 40%; in data set [11] it was 6%; in data set [12], 81%. In addition, the values for the 50% lethal dose (LD50) in data set [1] and in data set [3] were 651 mg/kg and more than 1000 mg/kg, respectively. In [4], this compound registered a Relative activity of 1.14. Also, in [2], the Protection is reported as 55%. In data set [16], the median effective dose (ED50) was 3.6 mg/kg. This compound also displayed a Peak effect in data set [6] of 50. Further, the pD2 in data set [7] was found to be 5.77.

Turning to `CC(=O)Nc1ccc2c(c1)C1=NNC(=O)CC1CC2` (stereo not given), the Inhibition stood at 6% in data set [8]; 14% in [9]; 0% in [10]; 62% in data set [11]; 17% in data set [12]. In addition, the LD50 in [1] and in [3] was more than 1000 mg/kg in each case. The Protection in data set [2] is 25%.

Consider `CC(=O)Nc1ccc2c(c1)CCC1CC(=O)NN=C21` (racemic), for which the Inhibition in data set [8] turned out to be 92%; in data set [9], 66%; in [10], 47%; in [11], 47%; in [12], 65%. In addition, the LD50 is 460 mg/kg in data set [20] and more than 1000 mg/kg in [3]. In addition, the Relative activity in data set [4] is recorded as 1.32. The compound further gave a Protection in data set [2] (20 mg/kg) of 100%. Further, in data set [23], the ED50 came out at 3.1 mg/kg. The compound also returned a Peak effect in data set [6] (25 mg/kg) of 90. For the same compound, in data set [7], the pD2 was determined as 5.54.

`N/N=c1\[nH][nH]/c(=N\N)c2ccccc12` [DIHYDRALAZINE] showed a Relative activity in [4] of 1. The compound further showed a 50% effective dose (ED50) in [24] of 64.1 mg/kg. In [6], this compound showed a Peak effect of 68.

By LD50 is commonly meant the dose at which mortality reaches 50%. A higher LD50 goes with a less toxic substance. As usually defined, the ED50 is the midpoint of the dose-response relation. Low readings indicate greater potency, high ones weaker potency. As usually defined, the Inhibition is the relative decrease from the control value, in per cent. Low readings indicate a response near the control, high ones a response far below the control.
